Measurements reported in US10849907B2, “Imidazopyridine derivatives and the use thereof as medicament” (Boehringer Ingelheim International GmbH, priority 2017, dated 2020).

Key:
NMDA NR1/NR2B receptor = molecular target: T1, NMDA NR1/NR2B receptor (Homo sapiens, UniProt Q05586+Q13224); test: In vitro NMDA NR1/NR2b cell assay (FLIPR, intracellular calcium induced by glycine/glutamate); type: cell-based; settings: HEK293 cells expressing NMDA NR1/NR2B, 20 μM glycine, 1 μM glutamate, compounds of the invention (Table 1)
T1 construct: host or cells: HEK293, tetracycline-inducible expression
Experimental: A human HEK293 cell line with tetracyclin-inducible expression of NMDA NR1/NR2B receptor was used as a test system for compound efficacy and potency. The cell line was purchased from ChanTest, Catalog # CT6121. Compound activity was determined by measuring the effect of compounds on intracellular calcium concentration induced by glycine/glutamate agonism in a FLIPRtetra system (Molecular Devices).
The cells were obtained as frozen cells in cryo-vials and stored until use at −150° C. Cells were grown in culture medium (DMEM/F12, 10% FBS, 5 μg/mL Blasticidin, 150 μg/mL Zeozin, 500 μg/mL Geneticin). […] For sub-culturing the cells were detached from flasks by Versene. For the assay, cells were detached, washed twice with induction medium (DMEM/F12 without glutamine, 10% FBS, 2 μg/mL Tetracycline, 2 mM Ketamine) and seeded to 384 well pure coat amine plates (BD 359324, 50000 cells per well in 50 μl) 48 h prior to assay in induction medium.
The test compounds were dissolved in 100% DMSO at a concentration of 10 mM and in a first step diluted in DMSO to a concentration of 5 mM, followed by serial dilution steps in 100% DMSO. Dilution factor and number of dilution steps may vary according to needs. Typically 8 different concentrations by 1:5 dilutions were prepared in duplicate, further intermediate dilutions (1:37.5) of the substances were carried out with aqueous assay buffer (137 mM NaCl, 4 mM KCl, 1.8 mM CaCl, 10 mM HEPES, 10 mM Glucose, pH 7.4) resulting in a compound concentration 3 times above the final test concentration and DMSO at 2.7% resulting in 0.9% final DMSO concentration in the assay.
At the assay day cells were washed 3× with assay puffer, 10 μL buffer remained in the wells after washing. 10 μL Ca kit loading buffer (AAT Bioquest) was added to the cells and the plates were incubated with lid for 60 minutes at r.t. 20 μl assay buffer containing 60 μM glycine (20 μM final) and 3 μM glutamate (1 μM final) was added to column 1-23. Fluorescence (indicating the calcium influx as a result of the NR1/NR2B ion channel activation) was read on the FLIPRtetra device for 60 seconds to monitor the glutamate induced effects. After 2 minutes 20 μL of compound or controls (row 1-22) in assay buffer were carefully added to the wells. […] The average of 2 measurements at 5 minutes and 5 min 10 seconds after compound addition is calculated and further used for IC50 calculations. Each assay microtiter plate contained wells (in column 23 or 24) with DMSO controls instead of compound as controls for glycine/glutamate induced fluorescence (high controls) and wells with 1 μM of a reference NR2b NAM as low controls (Compound 22; reference: Layton, Mark E et al, ACS Chemical Neuroscience 2011, 2(7), 352-362).
The output file of the reader contains the well number and measured average fluorescence units. For data evaluation and calculation, the measurement of the low control was set as 0% control and the measurement of the high control was set as 100% control. The IC50 values were calculated using the standard 4 parameter logistic regression formula. Calculation: [y=(a−d)/(1+(x/c)^b)+d], a=low value, d=high value; x=conc M; c=IC50 M; b=slope.

[1] = Metabolic stability in pooled human liver microsomes; type: in vitro ADME; settings: pH 7.6; pooled human liver microsomes 1 mg/mL, 1 μM compound, 37° C., NADPH; read-out: Half-life - t½ human liver microsomes
Description: Stability in human liver microsomes refers to the susceptibility of compounds to biotransformation in the context of selecting and/or designing drugs with favorable pharmacokinetic properties. The primary site of metabolism for many drugs is the liver. Human liver microsomes contain the cytochrome P450s (CYPs), and thus represent a model system for studying drug metabolization in vitro. Enhanced stability in human liver microsomes is associated with several advantages, including increased bioavailability and adequate half-life, which can enable lower and less frequent dosing of patients. Thus, enhanced stability in human liver microsomes is a favorable characteristic for compounds that are to be used for drugs.
The metabolic degradation of the test compound was assayed at 37° C. with pooled human liver microsomes. The final incubation volume of 60 μl per time point contains TRIS buffer pH 7.6 at room temperature (0.1 M), magnesium chloride (5 mM aqueous solution), microsomal protein (1 mg/mL for human) and the test compound at a final concentration of 1 μM. Following a short preincubation period at 37° C., the reactions were initiated by addition of betanicotinamide adenine dinucleotide phosphate, reduced form (NADPH, 1 mM), and terminated by transferring an aliquot into solvent after different time points. After centrifugation (10000 g, 5 min), an aliquot of the supernatant was assayed by LC-MS/MS for the amount of parent compound. The half-life was determined by the slope of the semi-logarithmic plot of the concentration-time profile.

human MDR1 (P-gp) = molecular target: T2, human MDR1 (P-gp) (Homo sapiens, UniProt P08183); test: MDCK assay MDR-1 (p-GP): permeability across MDCK-MDR1 monolayers; type: in vitro ADME; settings: for Papp A→B: MDCK-MDR1 monolayers, apical-to-basal, pH 7.4, 1 or 10 μM; for efflux ratio: pH 7.4, MDCK-MDR1, Papp (b-a) divided by Papp (a-b)
T2 construct: expressed in transfected cells; host or cells: MDCKII (Madin-Darby canine kidney) cells
Experimental: The MDCK assays provide information on the potential of a compound to pass the blood brain barrier. Permeability measurements across polarized, confluent MDCK-MDR1 cell monolayers grown on permeable filter supports are used as an in vitro absorption model: apparent permeability coefficients (PE) of the compounds across the MDCK-MDR1 cell monolayers are measured (pH 7.4, 37° C.) in apical-to-basal (AB) and basal-to-apical (BA) transport direction. The AB permeability (PEAB) represents drug absorption from the blood into the brain and the BA permeability (PEBA) drug efflux from the brain back into the blood via both, passive permeability as well as active transport mechanisms mediated by efflux and uptake transporters that are expressed on the MDCK-MDR1 cells, predominantly by the overexpressed human MDR1. Identical or similar permeabilities in both transport directions indicate passive permeation, vectorial permeability points to additional active transport mechanisms. Higher PEBA than PEAB (PEBA/PEAB >5) indicates the involvement of active efflux mediated by MDR1, which might compromise the goal to achieve sufficient brain exposure. Therefore, this assay provides valuable support for selection of compounds applicable for further in vivo testing. High permeability not limited by efflux at the blood brain barrier is a favourable characteristic for compounds that are to be used for drugs acting primarily in the CNS. Similar concepts are applicable to the MDCK BCRP assay and its interpretation; consequently, to ensure high permeability at the blood brain barrier, it is highly preferred to minimize the efflux (efflux <5) at both MDR1 and BCRP transporters.
Apparent permeability coefficients (Papp) of the compounds across the MDCK-MDR1 monolayers (MDCKII cells transfected with human MDR1 cDNA expression plasmid) are measured in apical-to-basal (AB) and basal-to-apical (BA) direction.
MDCK-MDR1 cells (6×10^5 cells/cm^2) are seeded on filter inserts (Corning, Transwell, polycarbonate, 0.4 μm pore size) and cultured for 9 to 10 days. Compounds dissolved in DMSO stock solution (1-20 mM) are diluted with HTP-4 aqueous buffer (128.13 mM NaCl, 5.36 mM KCl, 1 mM MgSO4, 1.8 mM CaCl2, 4.17 mM NaHCO3, 1.19 mM Na2HPO4, 0.41 mM NaH2PO4, 15 mM HEPES, 20 mM glucose, pH 7.4) supplemented with 0.25% BSA to prepare the transport solutions (final concentration: 1 or 10 μM, final DMSO <=0.5%). The transport solution is applied to the apical or basolateral donor side for measuring A-B or B-A permeability, respectively. The receiver side contains HTP-4 buffer supplemented with 0.25% BSA. Samples are collected at the start and end of experiment from the donor and at various time intervals for up to 2 hours also from the receiver side for concentration measurement by HPLC-MS/MS. Sampled receiver volumes are replaced with fresh receiver solution. Efflux ratio is calculated dividing the Papp (b-a) values by the Papp (a-b) values.

T1 sequence (Q13224 27-1484, other chains not shown): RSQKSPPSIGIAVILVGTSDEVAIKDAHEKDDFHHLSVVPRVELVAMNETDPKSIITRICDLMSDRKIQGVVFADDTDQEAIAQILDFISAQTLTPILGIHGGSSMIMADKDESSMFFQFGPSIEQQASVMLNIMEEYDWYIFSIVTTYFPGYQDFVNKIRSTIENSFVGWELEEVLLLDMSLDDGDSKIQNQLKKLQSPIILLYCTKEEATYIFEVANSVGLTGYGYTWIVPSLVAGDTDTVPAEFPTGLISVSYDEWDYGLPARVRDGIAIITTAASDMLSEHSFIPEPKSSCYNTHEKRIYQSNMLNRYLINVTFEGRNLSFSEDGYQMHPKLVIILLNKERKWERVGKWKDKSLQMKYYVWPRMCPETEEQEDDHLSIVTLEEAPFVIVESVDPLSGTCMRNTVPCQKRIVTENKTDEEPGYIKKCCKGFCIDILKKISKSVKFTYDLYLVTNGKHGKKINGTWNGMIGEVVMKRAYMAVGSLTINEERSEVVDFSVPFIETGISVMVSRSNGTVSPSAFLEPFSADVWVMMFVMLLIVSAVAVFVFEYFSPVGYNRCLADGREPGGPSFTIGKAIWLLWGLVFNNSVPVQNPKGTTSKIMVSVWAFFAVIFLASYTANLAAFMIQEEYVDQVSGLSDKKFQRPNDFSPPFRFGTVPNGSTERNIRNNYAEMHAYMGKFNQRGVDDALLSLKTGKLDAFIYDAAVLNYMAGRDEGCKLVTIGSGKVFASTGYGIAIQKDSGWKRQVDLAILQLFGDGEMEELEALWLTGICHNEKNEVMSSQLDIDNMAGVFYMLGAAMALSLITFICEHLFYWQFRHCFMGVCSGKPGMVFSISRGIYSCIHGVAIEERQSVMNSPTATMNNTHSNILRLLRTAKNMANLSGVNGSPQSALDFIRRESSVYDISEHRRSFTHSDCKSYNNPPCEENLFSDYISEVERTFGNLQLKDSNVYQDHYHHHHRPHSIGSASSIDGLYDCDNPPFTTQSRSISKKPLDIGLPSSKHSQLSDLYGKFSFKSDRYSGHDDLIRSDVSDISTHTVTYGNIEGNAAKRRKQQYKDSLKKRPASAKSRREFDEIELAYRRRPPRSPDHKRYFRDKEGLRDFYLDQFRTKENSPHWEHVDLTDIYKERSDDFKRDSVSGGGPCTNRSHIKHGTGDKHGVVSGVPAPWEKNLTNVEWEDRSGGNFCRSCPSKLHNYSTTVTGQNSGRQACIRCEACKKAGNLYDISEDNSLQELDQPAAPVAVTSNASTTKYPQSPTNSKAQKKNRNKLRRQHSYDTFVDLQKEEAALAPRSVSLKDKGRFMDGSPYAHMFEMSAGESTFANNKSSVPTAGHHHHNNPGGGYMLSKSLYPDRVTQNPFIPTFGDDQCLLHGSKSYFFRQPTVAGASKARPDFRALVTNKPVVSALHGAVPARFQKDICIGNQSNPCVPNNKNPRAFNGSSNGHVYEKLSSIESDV
T2 sequence (P08183 whole entry): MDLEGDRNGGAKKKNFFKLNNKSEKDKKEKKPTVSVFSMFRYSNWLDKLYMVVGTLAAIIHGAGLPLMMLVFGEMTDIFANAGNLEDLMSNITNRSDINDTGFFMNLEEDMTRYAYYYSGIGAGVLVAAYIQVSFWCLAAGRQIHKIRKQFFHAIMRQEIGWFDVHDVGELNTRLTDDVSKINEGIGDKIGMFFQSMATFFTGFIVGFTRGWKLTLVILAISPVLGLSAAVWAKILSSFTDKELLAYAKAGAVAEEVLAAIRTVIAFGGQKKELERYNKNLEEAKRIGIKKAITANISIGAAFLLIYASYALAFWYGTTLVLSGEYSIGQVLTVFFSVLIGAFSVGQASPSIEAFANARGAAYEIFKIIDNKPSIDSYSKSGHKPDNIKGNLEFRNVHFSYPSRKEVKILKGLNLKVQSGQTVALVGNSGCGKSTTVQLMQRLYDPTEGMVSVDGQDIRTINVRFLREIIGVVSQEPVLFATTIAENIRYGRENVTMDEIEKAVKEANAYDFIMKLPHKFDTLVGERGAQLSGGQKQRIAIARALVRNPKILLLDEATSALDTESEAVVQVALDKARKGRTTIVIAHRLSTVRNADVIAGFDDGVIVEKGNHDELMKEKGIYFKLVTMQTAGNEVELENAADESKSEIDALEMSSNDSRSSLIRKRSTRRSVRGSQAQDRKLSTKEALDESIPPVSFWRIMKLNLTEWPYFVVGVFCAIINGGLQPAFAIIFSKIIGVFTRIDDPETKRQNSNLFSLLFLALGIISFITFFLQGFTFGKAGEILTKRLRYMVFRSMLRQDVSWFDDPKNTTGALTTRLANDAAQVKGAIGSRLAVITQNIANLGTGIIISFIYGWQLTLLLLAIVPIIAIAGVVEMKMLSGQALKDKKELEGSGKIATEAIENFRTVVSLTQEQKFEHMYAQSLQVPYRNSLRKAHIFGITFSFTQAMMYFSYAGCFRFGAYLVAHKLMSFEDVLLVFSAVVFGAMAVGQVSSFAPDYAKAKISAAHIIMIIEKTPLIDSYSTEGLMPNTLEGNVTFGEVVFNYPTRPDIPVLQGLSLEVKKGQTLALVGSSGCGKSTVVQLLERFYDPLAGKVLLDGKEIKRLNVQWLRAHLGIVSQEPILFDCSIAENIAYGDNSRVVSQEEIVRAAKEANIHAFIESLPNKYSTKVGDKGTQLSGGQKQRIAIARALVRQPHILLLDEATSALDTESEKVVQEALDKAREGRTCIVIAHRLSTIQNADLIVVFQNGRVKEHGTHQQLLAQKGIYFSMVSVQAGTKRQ

| Compound | IC50 (NMDA NR1/NR2B receptor) [nM] | half-life at 1 µM [1] [min] | Papp A→B (human MDR1 (P-gp)) [×10⁻⁶ cm/s] | efflux ratio (human MDR1 (P-gp)) |
| --- | --- | --- | --- | --- |
| Cc1cc(F)ccc1COC(=O)N1CCO[C@H](c2nc3cccnc3[nH]2)C1 [Example 4] | 228 | 24 | – | – |
| Cc1ccnc2[nH]c([C@@H]3CN(C(=O)OCc4ccc(F)cc4)CCO3)nc12 [Example 6] | 475 | 40 | 44.4 | 1.48 |
| O=C(OCc1ccc(F)c(F)c1)N1CCO[C@H](c2nc3cccnc3[nH]2)C1 [Example 24] | 748 | – | – | – |

The remaining lines, values ahead:

| IC50 (NMDA NR1/NR2B receptor) [nM] | half-life at 1 µM [1] [min] | Papp A→B (human MDR1 (P-gp)) [×10⁻⁶ cm/s] | efflux ratio (human MDR1 (P-gp)) | Compound |
| --- | --- | --- | --- | --- |
| 293 | 22 | 49 | 1.16 | Cc1cccc(COC(=O)N2CCO[C@H](c3nc4cccnc4[nH]3)C2)c1 [Example 9] |
| 477 | – | – | – | O=C(OCc1ccc(Cl)c(F)c1)N1CCO[C@H](c2nc3cccnc3[nH]2)C1 [Example 25] |
